Where two headings read alike, the source gives them in different places.
Tests used:
[1] = biological target: T1, NOPr (Homo sapiens, UniProt P41146); assay: TR-FRET kinetic binding, Lumi4-Tb-SNAP-NOPr-CHO membranes; conditions: for Kd: kinetically derived, 15 min, n = 3
[2] = biological target: T1, NOPr; assay: TR-FRET equilibrium saturation binding, Lumi4Tb-SNAP-NOPr CHO membranes
[3] = biological target: T1, NOPr; assay: BRET G-protein activation (GPA) assay, Gαi2, agonist and antagonist mode, Flp-In-NOPr-CHO cells; assay type: cell-based
[4] = biological target: T2, SNAP-NOPr (Homo sapiens, UniProt P41146); assay: Confocal imaging of fluorescent ligand binding, live FlpIn CHO cells stably expressing SNAP-NOPr; assay type: cell-based; conditions: 1 μM, 30 min at 37 °C, live cells
T2 construct: expressed in transfected cells
T2 sequence (P41146 whole entry): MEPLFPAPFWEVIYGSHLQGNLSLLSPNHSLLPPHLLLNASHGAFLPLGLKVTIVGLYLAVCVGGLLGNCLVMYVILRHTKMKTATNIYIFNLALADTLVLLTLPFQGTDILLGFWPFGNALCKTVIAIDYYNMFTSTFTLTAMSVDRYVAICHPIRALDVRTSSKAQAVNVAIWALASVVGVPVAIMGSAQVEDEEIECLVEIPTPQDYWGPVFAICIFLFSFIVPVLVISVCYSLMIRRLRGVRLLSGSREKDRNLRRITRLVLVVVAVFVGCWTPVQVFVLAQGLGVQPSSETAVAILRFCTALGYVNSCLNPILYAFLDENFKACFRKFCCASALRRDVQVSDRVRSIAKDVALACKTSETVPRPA
Experimental: To first assess whether the library of fluorescent ligands (13a-h and 14h) can specifically label the NOPr, single time point confocal images of live FlpIn CHO cells stably expressing SNAP-NOPr were captured. Cells were incubated with fluorescent ligands 13a-h and 14h (1 μM) to assess the fluorescent ligand binding.
3 Single time point confocal images of live FlpIn CHO cells stably expressing SNAP-NOPr. Cells were labeled with SNAP-AF488 (cyan) to visualize SNAP-NOPr expression (a–d) and incubated for 30 min at 37 °C with fluorescent ligands 13e–h (1 μM) (magenta) to visualize fluorescent ligand binding (e-h).
For all experiments, live cell single time point confocal images were captured using a Zeiss Cell Discoverer 7 LSM 900 high-content automated confocal microscope. Two images per well were captured using a 10× objective and the Cy5 channel (650 λex, 673 λem), the AF488 (495λex, 520 λem) channel, and the CFP (433λex, 475 λem) channel. All cells were imaged in an imaging buffer containing (2 mM sodium pyruvate, 145 mM NaCl, 10 mM D-glucose, 5 mM KCl, 1 mM MgSO4·7H2O, 10 mM HEPES, 1.3 mM CaCl2 dihydrate, and 1.5 mM NaHCO3).
Stably expressing SNAP-NOPr FlpIn-CHO cells suspended in DMEM (D6421) (100 μL) were seeded (10,000 cells/well) into 96-well poly-D-lysine (PDL)-coated Greiner black polyester plates. Cells were incubated for 48 h at 37 °C and 5% CO2 prior to imaging.
Before measurement, the media were removed, and cells were washed with 90 μL of imaging buffer. Cells were then incubated with SNAP-AF488 (New England Biolabs) (0.5 μg·mL^–1) in imaging buffer for 30 min at 37 °C. After incubation, the SNAP-AF488 solution was aspirated and cells were rinsed twice with imaging buffer (90 μL). […] Cells were incubated for 30 min at 37 °C and 5% CO2 before the images were captured.

[5] = biological target: T1, NOPr; assay: TR-FRET competition binding with tracers 13g and 13h, Lumi4-Tb SNAP-NOPr membranes; conditions: 140 mM Na+, 100 μM Gpp(NH)p, 2 h 37 °C
[6] = biological target: NOPr; conditions: Table 4; literature values, reference number not given; read-out: literature K i; cited from earlier work
[7] = biological target: KOPr; conditions: literature value, reference number not given; read-out: KOPr K i; cited from earlier work
[8] = biological target: MOPr; conditions: literature value, reference number not given; read-out: MOPr K i; cited from earlier work
[9] = biological target: DOPr; conditions: literature value, reference number not given; read-out: DOPr K i; cited from earlier work
[10] = system: NOPr; set-up: method as in Spagnolo et al.,1; conditions: ref Spagnolo et al.,1, cited from earlier work
[11] = biological target: CHOhDOPr; set-up: method as in Spagnolo et al.,1; conditions: ref Spagnolo et al.,1; cited from earlier work
[12] = biological target: T1, NOPr; assay: TR-FRET competition binding with tracer 13h in presence and absence of Na+ and Gpp(NH)p
[13] = biological target: CHOhMOPr; set-up: method as in Spagnolo et al.,1; conditions: ref Spagnolo et al.,1; cited from earlier work
[14] = biological target: CHOhNOPr; conditions: ref Spagnolo et al.,1; cited from earlier work
[15] = biological target: CHOhKOPr; set-up: method as in Spagnolo et al.,1; conditions: ref Spagnolo et al.,1; cited from earlier work
[16] = IC50, antagonist mode, inhibition of EC80 concentration of N/OFQ, n = 4 in duplicate
[17] = pIC50 ± SEM, antagonist mode, inhibition of EC80 concentration of N/OFQ, n = 4 in duplicate

T1 sequence (P41146 whole entry): as above

CN1/C(=C/C=C/C=C/C2=[N+](CCCCCC(=O)NCCOc3cccc(CN4CCC[C@@H]4C(=O)NCCCN4CCC5(CC4)OCc4ccccc45)c3)c3ccc(S(=O)(=O)[O-])cc3C2(C)C)C(C)(C)c2cc(S(=O)(=O)[O-])ccc21.[K+] [13g, Potassium 1-(6-((2-(3-(((R)-2-((3-(3H-Spiro[isobenzofuran-1,4′-piperidin]-1′-yl)propyl)carbamoyl)pyrrolidin-1-yl)methyl)phenoxy)ethyl)amino)-6-oxohexyl)-3,3-dimethyl-2-((1E,3E)-5-((E)-1,3,3-trimethyl-5-sulfonatoindolin-2-ylidene)penta-1,3-dien-1-yl)-3H-indol-1-ium-5-sulfonate]
koff ([1]; 0–50 nM, over 15 min): 0.00167 s⁻¹
kon ([1]; 0–50 nM, over 15 min): 51700 M⁻¹ s⁻¹
Kd ([1]; read-out: kinetic KD (converted)): 35.7 nM
Kd ([1]; read-out: kinetic pKD (converted)): 35.5 nM
binding behaviour at the highest concentration tested ([2]; 400 nM): saturable binding with minimal nonspecific binding
Kd ([2]; 2 h, 37 °C, n = 3, read-out: saturation KD (converted)): 19.1 nM
Kd ([2]; 2 h, 37 °C, n = 3, read-out: saturation pKD (converted)): 19.1 nM
selectivity over the other opioid receptors ([2]; NOPr vs MOPr, DOPr, KOPr): > 100 fold
Kd ([2]; Table 3, equilibrium saturation binding, read-out: KD NOPr (converted)): 19.1 nM
Kd ([2]; Table 3, equilibrium saturation binding, read-out: pKD ± SEM NOPr (converted)): 19.1 nM
reduction in inhibitory potency from N-Boc congener to fluorescent ligand ([3]; 11g to 13g, 11h to 13h and 14h): ≥ 5 fold
IC50 [3, 16]: 110 nM
IC50 ([3]; NOP IC50 (nM), supplementary csv, GPA assay antagonist mode): 109 nM
IC50 ([3]; NOP pIC50 ± SEM, supplementary csv, GPA assay antagonist mode): 110 nM
IC50 [3, 17]: 100 nM
fluorescent ligand binding (confocal images) [4]: more pronounced binding

CC(C)C1CCC(N2CCC3(CC2)C(=O)N(CCNS(N)(=O)=O)Cc2ccccc23)CC1 (centres unmarked) [AT-121]
Ki ([5]; read-out: 13h K i ± SEM, tracer 13h (5 nM; 25 nM elsewhere in the source)): 11 ± 10 nM
Ki ([5]; tracer 13g (20 nM; 5 nM elsewhere in the source), read-out: 13g K i ± SEM): 17 ± 3 nM

O=C(NCCCN1CCC2(CC1)OCc1ccccc12)[C@H]1CCCN1Cc1ccccc1 [C24, (2R)-1-(phenylmethyl)-N-(3-spiro[1H-2-benzofuran-3,4′-piperidine]-1′-ylpropyl)pyrrolidine-2-carboxamide]
Ki [6]: 0.24 nM
Ki [7]: > 2500 nM
Ki [8]: > 2500 nM
Ki ([5]; 13g K i ± SEM (nM), tracer 13g (20 nM; 5 nM elsewhere in the source)): 0.06 ± 0.02 nM
Ki ([5]; 13h K i ± SEM (nM), tracer 13h (5 nM; 25 nM elsewhere in the source)): 0.09 ± 0.0008 nM
Ki [9]: > 2500 nM
IC50 [3, 16]: 2.7 nM
IC50 [3, 17]: 2.51 nM

Cc1cccc2c1CC[C@H](CN1CCC(c3c(Cl)cccc3Cl)CC1)C[C@@H]2O [SB-612111, (−)-cis-1-Methyl-7-[[4-(2,6-dichlorophenyl)piperidin-1-yl]methyl]-6,7,8,9-tetrahydro-5 H-benzocyclohepten-5-ol]
Ki [11]: < 5 µM
pKi CHOhDOPr [11]: < 5.3
change in apparent affinity (K i), Na+ and Gpp(NH)p vs NMDG condition [12]: ~1.3 fold
Ki [13]: < 1000 nM
pKi CHOhMOPr [13]: < 6.0
Ki [14]: 0.16 nM
pKi ± SEM CHOhNOPr [14]: 9.80 ± 0.08
Ki [15]: < 1000 nM
pKi CHOhKOPr [15]: < 6.0

N/OFQ: endogenous 17-amino acid neuropeptide agonist nociceptin/orphanin FQ, full NOPr agonist
Ki [6]: 0.08 ± 0.03 nM

Source: publication PMC12833874 (Journal of Medicinal Chemistry, 2025)
